From US20240400986A1, “MEMBRANE BOUND COMPOSITIONS AND METHODS RELATING TO SAME” (FLAGSHIP PIONEERING INNOVATIONS VII, LLC, priority 2021, published 2024)
Counter-ions that a name gives are not always drawn. Like-named read-outs stand apart in the source and are kept apart here.

Key:
neuronal cells = experiment: Gigasome-mediated extraction of stress granule-associated protein HuR (fixed plates, confocal); assay type: cell-based, human; conditions: 5 μM sodium arsenite, 0.2 μM MG-132, alone or combined, 24 h
Method: For this paradigm, cells were treated with a low sodium arsenite concentration of 5 μM either alone or in combination with the proteasome inhibitor MG-132 at 0.2 μM. A vehicular control amount of DMSO was added to the media to comparatively study cargo signals within cells and gigasomes. Treatments were carried out in reduced serum-containing media for 24 hours to mimic a chronic exposure to arsenite. The presence of the stress-granule-related cargo within cells and in gigasomes was characterized and quantified by confocal microscopy analysis of 4% paraformaldehyde. Non-specific labeling was blocked by incubation with 5% normal goat serum in PBS in the presence of 0.1% Triton X-100, for 2 h at room temperature, followed by immunolabeling with an antibody against the RNA-binding protein HuR (see Table 12) and incubation with Alexa Fluor® 568 secondary antibodies. Phalloidin Alexa Fluor® 488 was used to mark the proximal plasma membrane. Nuclei were counterstained with DAPI.
Images were captured using a Zeiss LSM 900 confocal microscope and a 40× objective. For analysis, 10×16-bit images per well were processed to obtain a final total range of 75-200 cells. Composite images were separated in the different channels. The background was subtracted from the red cargo-related channel, as described in Example 13a. The nuclear signal in the blue channel was thresholded using the “Yen” autothreshold algorithm. To measure the nuclear-to-cytosolic translocation of the stress-granule-related protein cargo upon treatment, firstly, the cargo-related nuclear signal was subtracted from the respective red channel image by creating a nuclear selection from the thresholded blue channel image, which was added to ImageJ Manager. The nuclear selection was then transferred to the background-subtracted red channel and the nuclear cargo signal was removed from the image leaving only the cytosolic signal. The cleared red channel image was thresholded using the “default” autothreshold algorithm for downstream particle analysis. To measure the cytosolic cargo signal, a cellular mask was then generated by thresholding the Green/F-actin channel using the “Li” autothreshold method. A cytosolic selection was created, added to ImageJ Manager, and transferred to the background subtracted, nuclear-cleared red channel image. The cytosolic cargo signal (integrated density) was measured and normalized to the number of nuclei counted in each field. Particle analysis was performed as described in Example 13a, using the thresholded green channel to identify particles of interest by filtering by area and circularity and re-directing to the blue and red channel for absence of nuclear signal and eventual presence of disease-related cargo, respectively. The quantity or distribution of objects obtained from the particle analysis was obtained as described in Example 13a.

[1] = test system: cardiomyocytic cell line derived from human ventricular heart tissue; experiment: Small molecule compound screen of gigasome production in cardiomyocytic monocultures;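 also: gigasomes shed into the culture medium were imaged by confocal microscopy and counted as round particles lacking nuclear signal, extrapolated to the whole well, fold change is relative to DMSO vehicle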
[2] = test system: cardiomyocytic cell line derived from human ventricular heart tissue; experiment: Cell viability in cardiomyocyte compound screen (CellTiter-Glo); assay type: cell-based; conditions: Table 22, cardiomyocytes, 24 hours
Excerpt: Cells were stained with Hoechst 34580, CellTracker Green/CellMask Green Actin and MitoTracker Deep Red to detect nuclear material, cytoplasm/F-actin, and mitochondria, respectively, and cultured in poly-L-lysine-coated 96-well glass bottom plates at 15,800 cells/cm^2 and allowed to adhere overnight. For the screening, a total of 100 randomly organized compounds (TargetMol) were divided in 5 groups. Each group included an untreated condition, a vehicular DMSO control, and a known high-gigasome producing condition to comparatively study gigasome production rates. As a cell death control group, 500 nM Staurosporine was added to induce apoptosis. Cultures were incubated for 24 hours under gigasome inducing conditions at concentrations ranging between 10 nM and 10,000 nM. […] Cells remaining in the 96-well plates were assessed for viability using CellTiter-Glo (Promega).

[3] = test system: neuronal cell line derived from human neuroblastoma
[4] = test system: neuronal cell line derived from human neuroblastoma; experiment: Small molecule compound screen of gigasome production in neuronal monocultures; conditions: for Number of Gigasomes Produced / Fold Change of Gigasomes Produced vs. DMSO: neuronal cells, 24 hours
Excerpt: (§1) To quantify and characterize gigasome production using microscopy, while tracking cell viability/phenotype, a multi-readout system was developed that allowed simultaneous analysis of gigasomes harvested from cell culture media supernatants and respective gigasome producing cell viability. […] For the screening, a total of 99 compounds (TargetMol) were divided in 5 groups. Each group included an untreated condition, a vehicular DMSO control, and a known high-gigasome producing condition to comparatively study gigasome production rates. As a cell death control group, 500 nM Staurosporine was added to induce apoptosis. Cultures were incubated for 24 hours under gigasome inducing conditions at concentrations ranging between 10 nM and 10,000 nM. Before the end of the treatment, live neuronal cultures were imaged. The Zeiss ZEN Blue software was used to distribute imaging fields of view (positions) to create an unbiased imaging sample of a well. 5 images were taken using a Zeiss LSM 900 confocal microscope. […] The BioApps ZEN software package was used to perform cell nucleus segmentation and counting. After 24 hours, gigasomes were harvested from the cell culture media by gently removing from the top of each 96-well ⅔ of the total volume without disturbing the cell layer (containing the settled gigasomes) and by adding to each well the same amount of PBS. The wells were washed twice gently, and the gigasome-containing media/PBS wash was transferred into the well of a 384-well glass bottom plate. Cells remaining in the 96-well plates were assessed for viability using CellTiter-Glo (Promega).
(§2) For gigasome analysis in 384-well plates, the Zeiss ZEN Blue software was used to distribute positions to create an unbiased imaging sample of a well. 6 images per well were taken using a Zeiss LSM 900 confocal microscope.
(§3) A watershed binary segmentation step was performed to separate grouped objects. For each particle in the mask, characteristic parameters of the particle were calculated and saved.
(§4) Particles of interest were identified by thresholding by area and circularity. […] Circularity, defined by the formula 4pi(area/perimeter^2, was set to be between 0.8 and 1, where a value of 1.0 is a perfect circle, and a value of 0 is a line. Gigasomes were identified from the particles of interest by thresholding by mean nuclear signal. The nuclear signal threshold was set using a value equal to one fourth of a threshold value calculated by the Li auto-threshold algorithm applied to the distribution of all particles of interest. Particles of interest with nuclear signal below this value were considered “negative” for nuclear material and were identified as gigasomes. A sampling factor was calculated to extrapolate the total quantity of a type of object (particles, particles of interest, gigasomes) in the well. The sampling factor was the percentage of the well's area that was imaged. […] The normalized quantity or distribution of objects was described as a quantity or distribution of objects per 1000 cells.

[5] = test system: neuronal cell line derived from human neuroblastoma; conditions: neuronal cells, 24 hours
Excerpt: as §1, §2, §3, §4

[6] = Homo sapiens, Cardiomyocyte, 24 h, read-out: Fold Change of Gigasomes Produced vs. DMSO
[7] = Table 22, dose 100 nM, cardiomyocytes, 24 hours
[8] = neuronal cells, dose 10 nM, 24 hours
[9] = neuronal cells, dose 100 nM, 24 hours
[10] = neuronal cells, dose 10000 nM, 24 hours
[11] = Homo sapiens, 24 h, read-out: Fold Change of Gigasomes Produced vs. DMSO

Structure (SMILES) | fold induction at 0.1 µM [1, 6] | Number of Gigasomes Produced [1, 7] | Viability ([2]; dose 100 nM) | Viability [3, 8] [%] | Viability [3, 9] [%] | Viability [3, 10] | fold induction at 0.01 µM [4, 11] | fold induction at 0.1 µM [4, 11] | fold induction at 10 µM [4, 11] | Number of Gigasomes Produced ([4]; dose 10 nM) | Number of Gigasomes Produced ([4]; dose 100 nM) | Number of Gigasomes Produced ([4]; dose 10000 nM) | also measured
O=[As]O [sodium arsenite] |  |  |  |  |  |  |  |  |  |  |  |  | HuR cytosolic signal (neuronal cells; compared to DMSO (FIG. 7B)): increased; gigasomes per 1000 cells (neuronal cells; fixed plates (FIG. 7C)): 200 per 1000 cells
CC[C@@]1([C@@H]2O[C@@H]([C@H]3O[C@@](O)(CO)[C@H](C)C[C@@H]3C)C[C@@H]2C)CC[C@H]([C@]2(C)CC[C@]3(C[C@H](O)[C@@H](C)[C@@H]([C@@H](C)[C@@H](OC)[C@H](C)C(=O)O)O3)O2)O1 [Monensin sodium salt] | 1.25 to 1.5 | 150-175 | >75% | >75 | >75 | 50-75% | 0.75 to 1 | 1.75 to 2 | 1.5 to 1.75 | <35 | 55-65 | 55-65 | fold induction at 0.01 µM [1, 6]: 1.25 to 1.5; fold induction at 1 µM [1, 6]: 2 to 3; Number of Gigasomes Produced ([1]; Table 22, dose 10 nM, cardiomyocytes, 24 hours): 150-175; Number of Gigasomes Produced ([1]; Table 22, dose 1000 nM, cardiomyocytes, 24 hours): 250-275; Viability ([2]; dose 10 nM): >75%; Viability ([2]; dose 1000 nM): 50-75%
C=C(C)[C@@H]1CC[C@]2(CO)CC[C@]3(C)[C@H](CC[C@@H]4[C@@]5(C)CC[C@H](O)C(C)(C)[C@@H]5CC[C@]43C)[C@@H]12 [Betulin] | 1.5 to 1.75 | 175-200 | 100% | 100 |  | 100% | 1.25 to 1.5 |  | 1 to 1.25 | 45-55 |  | 35-45 | 
COc1ccc(C[C@H]2NC[C@H](O)[C@H]2OC(C)=O)cc1 [Anisomycin] |  | 150-175 | 50-75% | 100 | >75 |  |  |  |  | <35 | 65-75 |  | Fold Change of Gigasomes Produced vs. DMSO [1, 7]: 1.25-1.5; Viability ([3]; neuronal cells, dose 1000 nM, 24 hours): 50-75%; Fold Change of Gigasomes Produced vs. DMSO ([4]; dose 10 nM): 1.0-1.25; Fold Change of Gigasomes Produced vs. DMSO ([4]; dose 100 nM): 1.75-2.0; Fold Change of Gigasomes Produced vs. DMSO ([4]; dose 1000 nM): 1.75-2.0; Number of Gigasomes Produced ([4]; dose 1000 nM): 65-75
Cn1cncc1[C@@](N)(c1ccc(Cl)cc1)c1ccc2c(c1)c(-c1cccc(Cl)c1)cc(=O)n2C [Tipifarnib] |  |  |  |  |  |  | 0.75 to 1 | 1.5 to 1.75 |  |  |  |  | Number of Gigasomes Produced ([5]; dose 10 nM): <35; Number of Gigasomes Produced ([5]; dose 100 nM): 55-65; Number of Gigasomes Produced ([5]; dose 1000 nM): 65-75; Viability ([3]; human, 24 h, 10 nM): >75%; Viability ([3]; human, 24 h, 100 nM): >75%; Viability ([3]; human, 24 h, 1000 nM): 50-75%; fold induction at 1 µM [4, 11]: 1.75 to 2
